Key:
isolated trachea = assay: Allergen (OA)-induced contraction of isolated trachea from sensitized guinea pigs; design: species or system guinea pig; conditions: 20 µM compound
Method: The effects of a number of the compounds described herein on allergen-induced bronchoconstriction were evaluated for anti-asthma activity. The ability of a compound to inhibit allergen-induced decreases in lung function in sensitized guinea pigs in response to antigen-challenge is indicative of anti-asthma activity. In particular, the model system is useful in the evaluation of the potential effects of a compound in the treatment of the early asthmatic reaction (EAR) when severe bronchoconstriction occurs.
Guinea pigs were exposed to a nebulized solution of 1% ovalbumin (OA) in saline for 15 min. […] Tracheal rings were prepared and bathed in Krebs-Henseleit solution at 37°C and aerated with 5% CO2 in O2. Tissues were suspended under a resting tension of 2 g and isometric contractions were measured using force-displacement transducers coupled to a polygraph. Tissues were incubated with each compound or 0.1% dimethylsulfoxide (as a control) for 20 min, after which increasing concentrations of OA (0.001 - 100 µg/ml) were added to the tissue. After the final concentration of OA was added and the response was recorded, the tissues were stimulated with 100 µM methacholine which caused maximum contraction of the trachea. The magnitude of the contraction induced by OA in the presence of each compound was expressed as a percentage of the maximum contraction obtained using methacholine (100 µM).

[1] = tested on: ileum from sensitized guinea pigs; assay: Antigen (ovalbumin)-induced contraction of isolated ileum from sensitized guinea pigs; design: species or system guinea pig; conditions: each 30 µM, 20 min; 100 µg/ml ovalbumin; mean, n=3-4, vs DMSO alone
Method: The ability of compounds to inhibit allergen-induced contraction of ileum from sensitized animals is indicative of antiallergic activity. Sensitized guinea pig ileum is particularly useful in measuring the immediate allergic response.
The guinea pig ileum has been used to evaluate the ability of compounds to inhibit allergen-induced histamine and mediator release causing smooth muscle contraction. Guinea pigs were sensitized by an intraperitoneal injection of 100 mg ovalbumin and an intramuscular injection of 50 mg ovalbumin on day 0, followed by a second intramuscular injection of 50 mg ovalbumin on day 1. […] Segments of ileum were prepared and suspended, with muscle contractions being measured in the longitudinal plane, in Tyrode's buffer at 37°C and aerated with 5% CO2 in O2. Tissues were suspended under a resting tension of 2 grams and isometric contractions were measured using force-displacement transducers coupled to a polygraph. Tissues were stimulated with 3 µM histamine 3 times to ensure reproducible contractions were obtained. Tissues were then incubated with each compound (30 µM) or 0.15% dimethylsulphoxide (DMSO) as a control, for 20 min, after which time the tissues were challenged with 100 µg/ml ovalbumin. The magnitude of the contraction induced by OA in the presence of each compound was expressed as a percentage of the contraction obtained to 3 µM histamine. […]

rabbit platelets = assay: Inhibition of PAF-induced aggregation of rabbit platelets; type: cell-based; conditions: Oryctolagus cuniculus, Platelet; 80 µM compound, 5 min preincubation; PAF-induced aggregation (title: 0.1 nM PAF) vs DMSO alone
Method: The assay system used to evaluate the ability of compounds to inhibit the aggregation of platelets in response to exogenous stimuli is indicative of anti-thrombotic or thrombolytic activity.
Platelets were isolated from rabbit blood and prepared at a density of 2.4 x 10^8 cells/ml in Tyrodes buffer (pH 7.2) containing Ca^2+. Platelets were incubated with each compound for 5 min at 37°C prior to stimulation. Platelets were stimulated with 1 nM platelet activating factor (PAF; EC75) in the presence of each of the compounds and aggregation was monitored for 5 min. Compounds were solubilized in dimethylsulfoxide (DMSO) and aggregation was measured as a percentage of the response to 1 nM PAF obtained in the presence of the appropriate concentration of DMSO. The degree of inhibition caused by each sample was calculated using the control response in the presence of DMSO equal to 100%.

Structure (SMILES) | percentage contraction compared to 100µM methacholine (100%) (isolated trachea; Study 1, 0.001 µg/ml OA) [%] | percentage contraction compared to 100µM methacholine (100%) (isolated trachea; Study 1, 0.003 µg/ml OA) [%] | percentage contraction compared to 100µM methacholine (100%) (isolated trachea; Study 1, 0.01 µg/ml OA) [%] | percentage contraction compared to 100µM methacholine (100%) (isolated trachea; Study 1, 0.03 µg/ml OA) [%] | percentage contraction compared to 100µM methacholine (100%) (isolated trachea; Study 1, 0.1 µg/ml OA) [%] | percentage contraction compared to 100µM methacholine (100%) (isolated trachea; Study 1, 0.3 µg/ml OA) [%] | percentage contraction compared to 100µM methacholine (100%) (isolated trachea; Study 1, 1.0 µg/ml OA) [%] | percentage contraction compared to 100µM methacholine (100%) (isolated trachea; Study 1, 3.0 µg/ml OA) [%] | percentage contraction compared to 100µM methacholine (100%) (isolated trachea; Study 1, 10.0 µg/ml OA) [%] | percentage contraction compared to 100µM methacholine (100%) (isolated trachea; Study 1, 30.0 µg/ml OA) [%] | Percentage Inhibition [1] [%] | inhibition at 80 µM (rabbit platelets) [%] | percentage contraction compared to 100µM methacholine (100%) (isolated trachea; Study 2, 0.01 µg/ml OA) [%] | percentage contraction compared to 100µM methacholine (100%) (isolated trachea; Study 2, 0.1 µg/ml OA) [%] | percentage contraction compared to 100µM methacholine (100%) (isolated trachea; Study 2, 1 µg/ml OA) [%] | percentage contraction compared to 100µM methacholine (100%) (isolated trachea; Study 2, 10 µg/ml OA) [%] | percentage contraction compared to 100µM methacholine (100%) (isolated trachea; Study 2, 100 µg/ml OA) [%]
C[C@]12CC[C@@H](O)[C@H](O)C1[C@@H](O)[C@H](O)C1C2CC[C@]2(C)C(=O)CCC12 (some centres unmarked) [Compound 145] | 0.8 | 6.2 | 5.9 | 7.6 | 8.3 | 13.6 | 14.8 | 20.0 | 28.0 | 31.0 | – | – | – | – | – | – | –
CC(C)[C@@H]1CC(O)OC([C@@H](C)[C@H]2CC(=O)[C@@H]3[C@@H]4C(O)C(O)C5C(O)C(O)CC[C@]5(C)[C@H]4CC[C@]23C)C1 (stereo partly drawn) [Compound 165, 22,29-epoxy-3,4,6,7,29-pentahydroxy-14β-stigmastan-15-one] | – | – | – | – | – | – | – | – | – | – | 27.0 | 51.2 | – | – | – | – | –
CC1(C)O[C@@H]2C3C(CC[C@@]4(C)C3CC[C@@H]4O[Si](C)(C)C(C)(C)C)[C@@]3(C)CC[C@H](O)[C@@H](O)C3[C@H]2O1 (some centres unmarked) [Compound 236] | 1.9 | 5.6 | 5.6 | 5.6 | 11.1 | 16.7 | 39 | 28 | 39 | 41 | – | – | – | – | – | – | –
C[C@]12CC[C@@H](O)[C@H](O)[C@@H]1[C@@H](O)[C@H](O)[C@@H]1[C@@H]2CC[C@]2(C)[C@@H](O)CC[C@@H]12 [Compound 241, 3α,4β,6α,7β,17β-pentahydroxy-5α-androstane] | 8.5 | 12.6 | 17.1 | 25.8 | 31.0 | 33.4 | 36.3 | 34.4 | 35.0 | 37.0 | – | 93.1 | – | – | – | – | –
C[C@]12CC[C@@H](O)C[C@@H]1[C@@H](O)[C@H](O)[C@@H]1[C@@H]2CC[C@]2(C)C(=O)CC[C@@H]12 [Compound 326] | – | – | – | – | – | – | – | – | – | – | – | – | 0 | 10.25 | 23.4 | 43.9 | 49.1
C[C@]12CC[C@@H](O)C[C@@H]1[C@@H](O)[C@H](O)[C@@H]1[C@@H]2CC[C@]2(C)[C@@H](O)CC[C@@H]12 [Compound 327] | – | – | – | – | – | – | – | – | – | – | – | – | 0 | 0 | 9.1 | 27.3 | 40.9
CC[C@H]1CCC2C3C(CC[C@@]21C)[C@@]1(C)CC[C@@H](O)CC1[C@@H](O)[C@@H]3O (some centres unmarked) [Compound 339] | – | – | – | – | – | – | – | – | – | – | 36.3 | – | – | – | – | – | –
